Values quoted from earlier work as cited in patent US20240082165A1, “METHODS AND COMPOSITIONS FOR PRECISION RELEASE OF PROBIOTICS TO IMPROVE HUMAN HEALTH” (SEED HEALTH INC., priority 2021, published 2024).

Columns and labels:
[1] = synthesized ligand, mice
[2] = delivered directly in the colon, overweight individuals

In the case of M-tri-Lys, the protection from colitis [1] is listed as “protected mice from colitis in a NOD2-dependent but MyD88-independent manner”.

For CCC(=O)O [propionate], the “energy intake, adiposity, liver lipid, plasma PYY and GLP-1” value [2] is given as “reduced energy intake, adiposity, and lipid liver content, and increased plasma levels of peptide YY (PYY) and glucagon-like peptide 1 (GLP-1)”.
